Experimental data reported in PubChem BioAssay (NCI).
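Growth conditions: 96-well plates. Treatment: test compound, 48 hours, 5 concentrations. Analysis: linear interpolation between bracketing concentrations; unreached endpoints set to highest concentration. Abbreviation: GI50, concentration required for 50% inhibition of growth. TGI denotes the concentration required for complete inhibition of growth.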

How the values were obtained:
Experiment in all cases: DTP human tumour cell line panel, 48 h
786-0 renal = system: 786-0 renal
A498 renal = system: A498 renal
A549 NSCLC = system: A549 NSCLC
ACHN renal = system: ACHN renal
BT-549 breast = system: BT-549 breast
CAKI-1 renal = system: CAKI-1 renal
CCRF-CEM leukemia = system: CCRF-CEM leukemia
COLO 205 colon = system: COLO 205 colon
DU-145 prostate = system: DU-145 prostate
EKVX NSCLC = system: EKVX NSCLC
HCC-2998 colon = system: HCC-2998 colon
HCT-116 colon = system: HCT-116 colon
HCT-15 colon = system: HCT-15 colon
HL-60(TB) leukemia = system: HL-60(TB) leukemia
HOP-62 NSCLC = system: HOP-62 NSCLC
HOP-92 NSCLC = system: HOP-92 NSCLC
HS 578T breast = system: HS 578T breast
HT29 colon = system: HT29 colon
IGROV1 ovarian = system: IGROV1 ovarian
K-562 leukemia = system: K-562 leukemia
KM12 colon = system: KM12 colon
LOX IMVI melanoma = system: LOX IMVI melanoma
M14 melanoma = system: M14 melanoma
MALME-3M melanoma = system: MALME-3M melanoma
MCF7 breast = system: MCF7 breast
MDA-MB-231 breast = system: MDA-MB-231 breast
MDA-MB-435 = system: MDA-MB-435
MDA-MB-468 breast = system: MDA-MB-468 breast
MOLT-4 leukemia = system: MOLT-4 leukemia
NCI-H226 lung = system: NCI-H226 lung
NCI-H23 lung = system: NCI-H23 lung
NCI-H460 lung = system: NCI-H460 lung
NCI-H522 lung = system: NCI-H522 lung
NCI/ADR-RES ovarian = system: NCI/ADR-RES ovarian
OVCAR-3 ovarian = system: OVCAR-3 ovarian
OVCAR-4 ovarian = system: OVCAR-4 ovarian
OVCAR-5 ovarian = system: OVCAR-5 ovarian
OVCAR-8 ovarian = system: OVCAR-8 ovarian
PC-3 prostate = system: PC-3 prostate
RPMI-8226 leukemia = system: RPMI-8226 leukemia
RXF 393 renal = system: RXF 393 renal
SF-268 CNS = system: SF-268 CNS
SF-295 CNS = system: SF-295 CNS
SF-539 CNS = system: SF-539 CNS
SK-MEL-2 melanoma = system: SK-MEL-2 melanoma
SK-MEL-28 melanoma = system: SK-MEL-28 melanoma
SK-MEL-5 melanoma = system: SK-MEL-5 melanoma
SK-OV-3 ovarian = system: SK-OV-3 ovarian
SN12C renal = system: SN12C renal
SNB-19 CNS = system: SNB-19 CNS
SNB-75 CNS = system: SNB-75 CNS
SR leukemia = system: SR leukemia
SW-620 colon = system: SW-620 colon
T-47D breast = system: T-47D breast
TK-10 renal = system: TK-10 renal
U251 CNS = system: U251 CNS
UACC-257 melanoma = system: UACC-257 melanoma
UACC-62 melanoma = system: UACC-62 melanoma
UO-31 renal = system: UO-31 renal

## O=C(N=Nc1c(O)[nH]c2ccc(Br)cc12)c1ccc2nc(-c3ccc(Cl)cc3)[nH]c2c1
786-0 renal
  GI50: 29.6 µM
  TGI: > 38 µM
A498 renal
  GI50: > 38 µM
  TGI: > 38 µM
A549 NSCLC
  GI50: > 38 µM
  TGI: > 38 µM
ACHN renal
  GI50: > 38 µM
  TGI: > 38 µM
BT-549 breast
  GI50: > 38 µM
  TGI: > 38 µM
CAKI-1 renal
  GI50: > 38 µM
  TGI: > 38 µM
CCRF-CEM leukemia
  GI50: 8.77 µM
  TGI: > 38 µM
COLO 205 colon
  GI50: 26.2 µM
  TGI: > 38 µM
DU-145 prostate
  GI50: 29.6 µM
  TGI: > 38 µM
EKVX NSCLC
  GI50: > 38 µM
  TGI: > 38 µM
HCC-2998 colon
  GI50: 32.6 µM
  TGI: > 38 µM
HCT-116 colon
  GI50: 15.2 µM
  TGI: > 38 µM
HCT-15 colon
  GI50: > 38 µM
  TGI: > 38 µM
HL-60(TB) leukemia
  GI50: > 38 µM
  TGI: > 38 µM
HOP-62 NSCLC
  GI50: > 38 µM
  TGI: > 38 µM
HOP-92 NSCLC
  GI50: > 38 µM
  TGI: > 38 µM
HS 578T breast
  GI50: > 38 µM
  TGI: > 38 µM
HT29 colon
  GI50: 15.2 µM
  TGI: > 38 µM
IGROV1 ovarian
  GI50: > 38 µM
  TGI: > 38 µM
K-562 leukemia
  GI50: 16.8 µM
  TGI: > 38 µM
KM12 colon
  GI50: > 38 µM
  TGI: > 38 µM
LOX IMVI melanoma
  GI50: 11.3 µM
  TGI: > 38 µM
M14 melanoma
  GI50: > 38 µM
  TGI: > 38 µM
MALME-3M melanoma
  GI50: > 38 µM
  TGI: > 38 µM
MCF7 breast
  GI50: 8.14 µM
  TGI: > 38 µM
MDA-MB-231 breast
  GI50: > 38 µM
  TGI: > 38 µM
MDA-MB-435
  GI50: 29.6 µM
  TGI: > 38 µM
MDA-MB-468 breast
  GI50: 8.03 µM
  TGI: 37.9 µM
MOLT-4 leukemia
  GI50: 11.1 µM
  TGI: > 38 µM
NCI-H226 lung
  GI50: > 38 µM
  TGI: > 38 µM
NCI-H23 lung
  GI50: 34 µM
  TGI: > 38 µM
NCI-H460 lung
  GI50: 21.7 µM
  TGI: > 38 µM
NCI-H522 lung
  GI50: > 38 µM
  TGI: > 38 µM
NCI/ADR-RES ovarian
  GI50: > 38 µM
  TGI: > 38 µM
OVCAR-3 ovarian
  GI50: > 38 µM
  TGI: > 38 µM
OVCAR-4 ovarian
  GI50: 12 µM
  TGI: > 38 µM
OVCAR-5 ovarian
  GI50: > 38 µM
  TGI: > 38 µM
OVCAR-8 ovarian
  GI50: 29.7 µM
  TGI: > 38 µM
PC-3 prostate
  GI50: > 38 µM
  TGI: > 38 µM
RPMI-8226 leukemia
  GI50: > 38 µM
  TGI: > 38 µM
RXF 393 renal
  GI50: > 38 µM
  TGI: > 38 µM
SF-268 CNS
  GI50: 10.8 µM
  TGI: > 38 µM
SF-295 CNS
  GI50: > 38 µM
  TGI: > 38 µM
SF-539 CNS
  GI50: > 38 µM
  TGI: > 38 µM
SK-MEL-2 melanoma
  GI50: > 38 µM
  TGI: > 38 µM
SK-MEL-28 melanoma
  GI50: > 38 µM
  TGI: > 38 µM
SK-MEL-5 melanoma
  GI50: > 38 µM
  TGI: > 38 µM
SK-OV-3 ovarian
  GI50: > 38 µM
  TGI: > 38 µM
SN12C renal
  GI50: > 38 µM
  TGI: > 38 µM
SNB-19 CNS
  GI50: 17.1 µM
  TGI: > 38 µM
SNB-75 CNS
  GI50: 8.44 µM
  TGI: > 38 µM
SR leukemia
  GI50: > 38 µM
  TGI: > 38 µM
SW-620 colon
  GI50: 14.5 µM
  TGI: > 38 µM
T-47D breast
  GI50: 11.8 µM
  TGI: > 38 µM
TK-10 renal
  GI50: > 38 µM
  TGI: > 38 µM
U251 CNS
  GI50: 19.9 µM
  TGI: > 38 µM
UACC-257 melanoma
  GI50: > 38 µM
  TGI: > 38 µM
UACC-62 melanoma
  GI50: > 38 µM
  TGI: > 38 µM
UO-31 renal
  GI50: > 38 µM
  TGI: > 38 µM
